The structures appear in SMILES notation.

Assay in all cases: biochemical
Common to all, as to design: KINOMEscan competition binding, DNA-tagged kinase against immobilised ligand, qPCR read-out
Holding throughout (details): read-out: Percent Control

Test [1] deals with T1, CABC1 (Homo sapiens, UniProt Q8NI60).
T1 construct: gene COQ8A
As to the method: (§1) The KINOMEscan^TM kinase assays[65] were performed by Eurofins DiscoverX Corporation. For each kinase, the assay relies on the ability of the tested compound to compete against an immobilised ligand for binding to the DNA-tagged kinase. RT-qPCR is then used to measure the quantity of kinase molecules bound to the immobilised ligand, which is decreased if the tested compound competed with the kinase-ligand interaction. An 11-point 3-fold serial dilution of IDX compound was prepared in 100% DMSO at 100× final test concentration and subsequently diluted to 1× in the assay. […]

The target of test [2] is CAMK1G (Homo sapiens, UniProt Q96NX5). How it is done:
as §1

In test [3] the target is CLK1 (Homo sapiens, UniProt P49759). As to the method:
as §1

Test [4] addresses EGFR (Homo sapiens, UniProt P00533). As to the method:
as §1

For test [5], the target named is FGFR1 (Homo sapiens, UniProt P11362). As to the method:
as §1

Test [6] concerns the target FRK (Homo sapiens, UniProt P42685). As to the method: as §1
The target in test [7] is T2, JAK1(JH2domain-pseudokinase) (Homo sapiens, UniProt P23458).
T2 construct: JH2 domain pseudokinase
As to the method: as §1

Test [8] has as its target LCK (Homo sapiens, UniProt P06239). As to the method:
as §1

Test [9] deals with LIMK2 (Homo sapiens, UniProt P53671). How it is done: as §1
For test [10], the target named is MAP3K1 (Homo sapiens, UniProt Q13233). As to the method:
as §1

For test [11], the target named is PKN2 (Homo sapiens, UniProt Q16513). How it is done: as §1
Test [12] concerns the target PRKCD (Homo sapiens, UniProt Q05655). How it is done: as §1
The target in test [13] is PRKCI (Homo sapiens, UniProt P41743). How it is done:
as §1

In test [14] the target is SIK1 (Homo sapiens, UniProt P57059). How it is done: as §1
The target in test [15] is STK25 (Homo sapiens, UniProt O00506). How it is done:
as §1

For test [16], the target named is STK32A (Homo sapiens, UniProt Q8WU08). As to the method:
as §1

In test [17] the target is STK32C (Homo sapiens, UniProt Q86UX6). How it is done:
as §1

The target in test [18] is TGFBR1 (Homo sapiens, UniProt P36897). How it is done: as §1
Test [19] deals with TYRO3 (Homo sapiens, UniProt Q06418). As to the method: as §1
Test [20] concerns the target WNK4 (Homo sapiens, UniProt Q96J92). How it is done: as §1

Chain of FRK (P42685 whole entry): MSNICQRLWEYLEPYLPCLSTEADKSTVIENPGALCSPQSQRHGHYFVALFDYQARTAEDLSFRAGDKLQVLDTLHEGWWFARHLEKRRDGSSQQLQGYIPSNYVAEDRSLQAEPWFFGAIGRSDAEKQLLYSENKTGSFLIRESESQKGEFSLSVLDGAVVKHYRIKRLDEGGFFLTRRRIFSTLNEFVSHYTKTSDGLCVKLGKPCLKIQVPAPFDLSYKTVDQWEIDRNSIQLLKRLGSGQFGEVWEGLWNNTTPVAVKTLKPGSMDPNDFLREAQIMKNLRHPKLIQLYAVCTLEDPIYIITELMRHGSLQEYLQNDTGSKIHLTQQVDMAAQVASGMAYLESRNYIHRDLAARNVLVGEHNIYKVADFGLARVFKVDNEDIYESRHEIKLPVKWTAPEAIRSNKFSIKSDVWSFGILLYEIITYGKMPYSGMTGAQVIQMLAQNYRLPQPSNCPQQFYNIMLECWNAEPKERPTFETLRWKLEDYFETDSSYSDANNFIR
Chain of TYRO3 (Q06418 whole entry): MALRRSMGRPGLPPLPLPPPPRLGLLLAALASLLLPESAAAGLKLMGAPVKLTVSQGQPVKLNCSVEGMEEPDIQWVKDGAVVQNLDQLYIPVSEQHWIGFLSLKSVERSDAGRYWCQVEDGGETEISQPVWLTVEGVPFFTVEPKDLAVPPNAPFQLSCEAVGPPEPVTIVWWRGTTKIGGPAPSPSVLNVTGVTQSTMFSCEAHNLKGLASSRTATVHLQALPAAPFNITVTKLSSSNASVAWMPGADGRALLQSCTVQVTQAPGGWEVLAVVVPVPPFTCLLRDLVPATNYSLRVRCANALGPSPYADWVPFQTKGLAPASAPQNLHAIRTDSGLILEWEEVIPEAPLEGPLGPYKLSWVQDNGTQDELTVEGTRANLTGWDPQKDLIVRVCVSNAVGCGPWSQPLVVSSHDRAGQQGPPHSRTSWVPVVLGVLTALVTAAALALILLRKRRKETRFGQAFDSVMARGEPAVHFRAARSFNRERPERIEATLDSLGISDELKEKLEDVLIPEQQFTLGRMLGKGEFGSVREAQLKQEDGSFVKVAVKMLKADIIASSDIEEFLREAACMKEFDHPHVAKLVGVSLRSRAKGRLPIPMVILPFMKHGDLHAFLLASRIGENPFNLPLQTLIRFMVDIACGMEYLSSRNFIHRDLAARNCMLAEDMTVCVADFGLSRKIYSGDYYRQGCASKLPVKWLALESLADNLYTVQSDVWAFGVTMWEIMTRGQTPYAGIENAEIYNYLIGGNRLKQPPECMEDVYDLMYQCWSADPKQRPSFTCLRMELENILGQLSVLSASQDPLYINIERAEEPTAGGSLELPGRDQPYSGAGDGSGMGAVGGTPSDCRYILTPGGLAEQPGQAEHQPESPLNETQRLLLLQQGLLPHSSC
Chain of PRKCD (Q05655 whole entry): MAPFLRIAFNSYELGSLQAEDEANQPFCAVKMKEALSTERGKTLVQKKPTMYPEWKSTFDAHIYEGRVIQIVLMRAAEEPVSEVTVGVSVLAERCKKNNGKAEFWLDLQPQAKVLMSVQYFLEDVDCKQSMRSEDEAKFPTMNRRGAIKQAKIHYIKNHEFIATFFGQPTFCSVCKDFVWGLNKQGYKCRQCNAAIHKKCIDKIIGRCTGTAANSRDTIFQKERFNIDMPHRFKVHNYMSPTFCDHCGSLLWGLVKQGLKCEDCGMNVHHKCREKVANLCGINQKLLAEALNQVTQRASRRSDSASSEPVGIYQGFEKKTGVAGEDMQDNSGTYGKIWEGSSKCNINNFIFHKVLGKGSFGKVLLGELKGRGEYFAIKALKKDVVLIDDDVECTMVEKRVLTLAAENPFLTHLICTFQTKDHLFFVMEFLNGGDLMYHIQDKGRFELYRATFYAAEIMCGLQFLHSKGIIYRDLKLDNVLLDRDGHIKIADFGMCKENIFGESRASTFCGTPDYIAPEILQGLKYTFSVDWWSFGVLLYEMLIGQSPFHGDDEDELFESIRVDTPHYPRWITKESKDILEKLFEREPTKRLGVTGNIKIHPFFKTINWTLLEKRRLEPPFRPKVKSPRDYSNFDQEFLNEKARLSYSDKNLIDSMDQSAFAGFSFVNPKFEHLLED
Chain of SIK1 (P57059 whole entry): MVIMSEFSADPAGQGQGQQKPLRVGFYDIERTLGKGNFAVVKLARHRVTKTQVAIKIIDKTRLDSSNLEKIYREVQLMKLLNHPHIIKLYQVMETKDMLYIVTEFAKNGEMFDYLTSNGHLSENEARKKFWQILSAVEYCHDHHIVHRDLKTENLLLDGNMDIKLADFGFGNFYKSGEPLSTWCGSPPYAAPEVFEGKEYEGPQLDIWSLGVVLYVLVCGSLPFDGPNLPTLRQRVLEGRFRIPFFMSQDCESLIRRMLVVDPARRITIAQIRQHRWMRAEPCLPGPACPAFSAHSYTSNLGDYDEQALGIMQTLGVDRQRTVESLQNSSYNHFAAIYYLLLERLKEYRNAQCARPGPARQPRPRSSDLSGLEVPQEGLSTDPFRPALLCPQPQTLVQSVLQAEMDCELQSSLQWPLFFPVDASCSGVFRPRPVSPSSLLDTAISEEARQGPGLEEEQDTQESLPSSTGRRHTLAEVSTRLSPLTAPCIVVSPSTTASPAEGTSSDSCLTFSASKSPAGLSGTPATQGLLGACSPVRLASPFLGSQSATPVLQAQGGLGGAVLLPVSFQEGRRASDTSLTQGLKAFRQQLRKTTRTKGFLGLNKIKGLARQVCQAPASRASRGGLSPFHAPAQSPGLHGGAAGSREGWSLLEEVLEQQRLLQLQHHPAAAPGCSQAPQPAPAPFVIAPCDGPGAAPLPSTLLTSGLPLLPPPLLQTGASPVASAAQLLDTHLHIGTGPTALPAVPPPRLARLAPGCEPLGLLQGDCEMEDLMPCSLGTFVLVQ
Chain of PRKCI (P41743 whole entry): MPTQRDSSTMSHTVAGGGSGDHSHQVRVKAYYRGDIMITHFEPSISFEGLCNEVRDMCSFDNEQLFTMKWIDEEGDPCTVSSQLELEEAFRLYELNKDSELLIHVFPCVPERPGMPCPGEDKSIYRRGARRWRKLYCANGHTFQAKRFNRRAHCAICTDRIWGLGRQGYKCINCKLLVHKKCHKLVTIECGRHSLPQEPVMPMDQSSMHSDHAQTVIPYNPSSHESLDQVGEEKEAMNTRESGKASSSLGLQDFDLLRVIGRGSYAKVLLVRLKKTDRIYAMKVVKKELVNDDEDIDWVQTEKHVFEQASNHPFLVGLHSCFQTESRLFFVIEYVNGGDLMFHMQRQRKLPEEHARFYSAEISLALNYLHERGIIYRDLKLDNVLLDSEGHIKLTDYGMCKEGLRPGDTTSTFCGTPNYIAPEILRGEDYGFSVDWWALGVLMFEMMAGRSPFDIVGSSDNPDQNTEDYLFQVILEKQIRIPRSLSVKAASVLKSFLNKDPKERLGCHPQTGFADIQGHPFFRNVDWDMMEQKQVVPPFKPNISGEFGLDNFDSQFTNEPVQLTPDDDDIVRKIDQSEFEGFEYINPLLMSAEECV
Chain of MAP3K1 (Q13233 whole entry): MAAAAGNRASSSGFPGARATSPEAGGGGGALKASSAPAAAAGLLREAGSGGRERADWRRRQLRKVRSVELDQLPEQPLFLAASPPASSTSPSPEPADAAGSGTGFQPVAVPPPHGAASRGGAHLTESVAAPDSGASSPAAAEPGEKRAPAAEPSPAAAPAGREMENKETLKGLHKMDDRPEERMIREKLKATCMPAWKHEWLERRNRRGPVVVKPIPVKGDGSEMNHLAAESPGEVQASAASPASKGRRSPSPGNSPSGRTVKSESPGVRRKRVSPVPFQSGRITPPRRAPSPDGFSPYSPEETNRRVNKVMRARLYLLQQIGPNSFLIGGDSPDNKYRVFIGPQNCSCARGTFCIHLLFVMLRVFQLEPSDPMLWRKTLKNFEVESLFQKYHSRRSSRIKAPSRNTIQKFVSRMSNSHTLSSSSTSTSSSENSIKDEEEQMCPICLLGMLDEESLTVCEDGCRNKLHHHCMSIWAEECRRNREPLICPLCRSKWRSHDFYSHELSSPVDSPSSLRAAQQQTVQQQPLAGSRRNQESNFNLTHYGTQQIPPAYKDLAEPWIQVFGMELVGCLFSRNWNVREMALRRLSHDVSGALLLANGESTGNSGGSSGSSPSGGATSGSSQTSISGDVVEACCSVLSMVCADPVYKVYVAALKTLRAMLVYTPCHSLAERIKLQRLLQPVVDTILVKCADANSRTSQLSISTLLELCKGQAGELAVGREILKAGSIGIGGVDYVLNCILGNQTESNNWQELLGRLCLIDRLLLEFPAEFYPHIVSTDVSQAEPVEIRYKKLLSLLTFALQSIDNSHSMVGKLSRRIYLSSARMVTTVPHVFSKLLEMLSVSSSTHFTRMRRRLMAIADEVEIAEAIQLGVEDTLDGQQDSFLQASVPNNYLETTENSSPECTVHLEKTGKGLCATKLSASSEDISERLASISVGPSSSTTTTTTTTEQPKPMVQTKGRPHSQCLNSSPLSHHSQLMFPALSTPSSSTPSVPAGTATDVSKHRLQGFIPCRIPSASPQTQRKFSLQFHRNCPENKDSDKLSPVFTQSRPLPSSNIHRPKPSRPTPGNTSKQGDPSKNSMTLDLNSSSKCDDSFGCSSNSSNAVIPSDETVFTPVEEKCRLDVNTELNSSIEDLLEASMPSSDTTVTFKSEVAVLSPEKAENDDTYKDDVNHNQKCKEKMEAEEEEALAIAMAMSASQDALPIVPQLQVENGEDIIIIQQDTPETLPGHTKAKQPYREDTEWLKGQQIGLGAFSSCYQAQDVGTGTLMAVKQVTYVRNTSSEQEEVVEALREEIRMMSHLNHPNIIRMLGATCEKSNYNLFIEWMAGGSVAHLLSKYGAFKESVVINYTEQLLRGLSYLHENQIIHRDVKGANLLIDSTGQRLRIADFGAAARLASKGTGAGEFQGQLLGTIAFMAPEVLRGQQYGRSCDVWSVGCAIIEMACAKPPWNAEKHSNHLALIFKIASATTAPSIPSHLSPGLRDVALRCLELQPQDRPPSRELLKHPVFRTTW

In the case of `Oc1ccc(C2=Cc3ccc(O)cc3OC2)cc1` [compound 1, idronoxil], the remaining binding at 10 µM in test [1] came to 78%; in test [2], 80%; in test [3], 53%; in [4], 83%; in test [5], 92%; in [6], 78%. Further, the remaining binding at 10 µM in [7] stood at 90%; in [8], 60%; in test [9] it was 90%; in test [10] it was 76%; in [11], 70%; in test [12] it was 96%. For the same molecule, the remaining binding at 10 µM in test [13] was found to be 70%; in test [14], 97%; in test [15], 77%; in test [16], 94%; in test [17], 54%; in [18], 78%. The remaining binding at 10 µM in [19] worked out at 66%; in test [20], 95%.

The values are drawn from PMC10507085, “Pharmacological inhibition of TBK1/IKKε blunts immunopathology in a murine model of SARS-CoV-2 infection” (Nature Communications, 2023).
